Data as given in publication PMC5618426, “APETx4, a Novel Sea Anemone Toxin and a Modulator of the Cancer-Relevant Potassium Channel KV10.1” (Marine Drugs, 2017).

How the values were obtained:
[1] = system: hERG; details: cited from earlier work
[2] = system: KV2.1; details: ref [46]; cited from earlier work
Description: APETx1 is proposed to bind to the voltage sensor paddle of hERG. In particular, the negative charge of E518 is expected to form an electrostatic interaction with the toxin [44]. Several other kinds of gating modifier toxins also bind to the extracellular exposed part of the S3–S4 domain. More precisely by binding to a glutamic acid residue and several hydrophobic amino acid residues. An example of these toxins is Hanatoxin (HaTx1) from the tarantula Grammostola spatulata.

[3] = system: KV10.1; assay: KV10.1 inhibition by related toxins (unpublished data); assay type: cell-based
[4] = system: ASIC3; details: cited from earlier work

**Q.** For `COc1ccc(CCN2CCC(Nc3nc4ccccc4n3Cc3ccc(F)cc3)CC2)cc1` [astemizole], which “block of hERG (KV11.1)” value [1] is on record?
**A.** The value was “block the cardiac human Eag-related gene (hERG, KV11.1)”.

**Q.** For “HaTx1: toxin from the tarantula Grammostola spatulata (ECRYLFGGCKTTSDCCKHLGCKFRDKYCAWDFTFS; UniProt P56852 50-84, looked up)”, which “gating modification of KV2.1” value [2] is on record?
**A.** Its value is “modifies the channel gating of KV2.1”.

**Q.** For APETx2, which IC50 [1] is on record?
**A.** Its IC50 is ~1200 nM.

**Q.** And the “effect on KV10.1” value [3]?
**A.** Its value is “no effect on KV10.1”.

**Q.** And the IC50 [4]?
**A.** Its IC50 is ~63 nM.
